This is an account of results in publication PMC9767310 (Journal of chemical information and modeling, 2022).

“Also recorded” adds a separate entry of the source. Counter-ions that a name gives are not always drawn.

The target of test [1] is T1, αVβ3 (Homo sapiens, UniProt P05106+P06756). Description: Monoclonal antibody AP5 binding assay. It counts as cell-based.
Test [2] addresses T1, αVβ3. Briefly: αVβ3-mediated cell adhesion to fibrinogen. It is filed as cell-based.
Test [3] deals with recombinant αVβ3 ectodomain (Homo sapiens, UniProt P05106+P06756). Briefly: Negative-stain electron microscopy of αVβ3 ectodomain conformation.

The compound `Cl.Cl.O=C(NCCCc1ccc2c(n1)NCCC2)Nc1ccnc2ccccc12` [MSR03, 1-(quinolin-4-yl)-3-(3-(5,6,7,8-tetrahydro-1,8-naphthyridin-2-yl)propyl)urea dihydrochloride] showed a half-maximal effective concentration (EC50) in test [1] (EC50 (half-maximal exposure of the AP5 epitope), MSR03 dihydrochloride prepared in 1 M NaCl, n = 3) greater than 300 µM. Also, the “exposure of the AP5 epitope (in words)” value in test [1] (HEK-αVβ3 cells) was “did not expose the AP5 epitope; also recorded: does not expose the epitope for the ligand-induced binding site of antibody AP5”. The compound also showed an IC50 in test [2] of 1.6 ± 0.58 µM. Further, the “increase in potency vs ZINC72424116” value in test [2] (adhesion IC50) stood at 3.5 fold. For the same compound, the “receptor extension and swing-out by negative-stain EM (in words)” value in test [3] is “does not induce receptor extension and swing-out”. Besides, in test [3] (312 μM, control 5%), the “percentage of αVβ3 in the active, extended-open conformation” value is reported as “did not increase this percentage”.
`c1ccc2c(N3CCN(Cc4ccc5c(n4)NCCC5)CC3)ccnc2c1` [MSR02, 7-((4-(quinolin-4-yl)piperazin-1-yl)methyl)-1,2,3,4-tetrahydro-1,8-naphthyridine] had an IC50 in test [2] of 2 ± 1.73 µM.
On the same count and under the same terms, to `OCC[C@@H]1CN(c2ccnc3ccccc23)CCN1Cc1ccc2c(n1)NCCC2` [MSR01R, (R)-2-(4-(quinolin-4-yl)-1-((5,6,7,8-tetrahydro-1,8-naphthyridin-2-yl)methyl)piperazin-2-yl)ethan-1-ol hydrochloride] belongs 1.3 ± 0.33 µM.
In the case of `COc1ccc([C@H](CC(=O)O)N2CCN(CCCc3ccc4c(n3)NCCC4)C2=O)cn1` [MK-429, reference compound], in test [2] (3 nM), the “inhibition of αVβ3-mediated cell adhesion (positive control)” value is recorded as greater than 90%.
In turn, `OCC[C@H]1CN(c2ccnc3ccccc23)CCN1Cc1ccc2c(n1)NCCC2` [MSR01S, (S)-2-(4-(quinolin-4-yl)-1-((5,6,7,8-tetrahydro-1,8-naphthyridin-2-yl)methyl)-piperazin-2-yl)ethan-1-ol hydrochloride] showed an IC50 in test [2] of 1 ± 0.3 µM.

Broadly, the EC50 is the midpoint of the concentration-response curve. As usually defined, the IC50 is the concentration needed to halve the response being measured. Low readings indicate inhibition by little substance, high ones a need for much substance.
